Assay results reported in ChEMBL document CHEMBL1148014, “Antileukotrienic N-arylethyl-2-arylacetamides in the treatment of ulcerative colitis” (Eur J Med Chem, 2007).
The source made the active and inactive calls. The rule behind the calls is not given here.

Assays:
[1] = octanol/water
Description: Lipophilicity, log K of the compound

Leukotriene B4 receptor = Leukotriene B4 receptor (Homo sapiens, UniProt Q9NPC1+Q15722)
Description: Displacement of [3H]LTB4 from LTB4 receptor in guinea pig spleen membrane

Mus musculus [2] = species on record: Mus musculus; assay: animal or person; details: po, read-out: Inhibition
physchem = details: octanol/water
Description: Partition coefficient, log P of the compound

Rattus norvegicus = species on record: Rattus norvegicus; assay: animal or person; details: read-out: Inhibition
Mus musculus [3] = species on record: Mus musculus; assay: Antiinflammatory activity against dextran sodium sulfate-induced ulcerative colitis in BALB/c mouse assessed as large intestinal bleeding; format: functional, organism-based
Mus musculus [4] = species on record: Mus musculus; assay: Antiinflammatory activity against dextran sodium sulfate-induced ulcerative colitis in BALB/c mouse assessed as stool consistency; format: functional, organism-based
Mus musculus [5] = assay: Stimulation of hyperaemia in mouse at 200 mg/kg, po; format: functional
Mus musculus [6] = species on record: Mus musculus; assay: animal or person; details: po, read-out: Inhibition; remark: listed apart in the source

| log K [1] | IC50 (Leukotriene B4 receptor) [nM] | logP (physchem) | Compound | inhibition in vivo at 200 mg/kg (Mus musculus [2]) [%] | inhibition in vivo at 100 mg/kg (Rattus norvegicus) [%] | Activity (Mus musculus [3]) | Activity (Mus musculus [4]) | Activity (Mus musculus [5]) [%] | inhibition in vivo at 200 mg/kg (Mus musculus [6]) [%] |
| --- | --- | --- | --- | --- | --- | --- | --- | --- | --- |
| 0.013 | 67000 | 4.73 | COc1cc(CC(=O)O)ccc1OCCCOc1ccc(CC(=O)N(C)CCc2ccccc2)cc1 | 14 |  |  |  |  |  |
| 0.089 |  | 5.44 | O=C(O)Cc1ccc(OCCCCOc2ccc(CC(=O)NCCc3ccccc3)cc2)cc1 | 23 |  |  |  |  |  |
| 0.471 | 660 | 6.2 | Cc1ccc(CCN(C)C(=O)Cc2ccc(OCCCCOc3ccc(CC(=O)O)cc3)cc2)cc1 | 20 |  |  |  |  |  |
| 0.166 | 18000 | 5.16 | CN(CCc1ccccc1)C(=O)Cc1ccc(OCCCOc2ccc(CC(=O)O)cc2)cc1 | 20 | 39 |  |  |  |  |
| 0.364 | 1200 | 6.3 | CN(CCc1ccccc1)C(=O)Cc1ccc(OCCCCOc2ccc(CC(=O)O)cc2Cl)cc1 | 23 | 32 | inactive | inactive |  |  |
| 0.12 | 8600 | 5.22 | COc1cc(CC(=O)O)ccc1OCCCCOc1ccc(CC(=O)N(C)CCc2ccccc2)cc1 | 21 | 0 |  |  |  |  |
| -0.079 |  | 5.01 | COc1cc(CC(=O)O)ccc1OCCCCOc1ccc(CC(=O)NCCc2ccccc2)cc1 | 23 |  |  |  | 7.7 |  |
| 0.287 | 4700 | 5.65 | CN(CCc1ccccc1)C(=O)Cc1ccc(OCCCCOc2ccc(CC(=O)O)cc2)cc1 | 45 | 30 |  |  |  |  |
| 0.193 |  | 5.62 | COc1cc(CC(=O)O)ccc1OCCCOc1ccc(CC(=O)N(C)CCc2ccc(Br)cc2)cc1 | 38 | 3 |  |  |  |  |
|  |  |  | CC(c1cc2ccccc2s1)N(O)C(N)=O (stereo not given) [ZILEUTON] |  | 46 |  |  |  | 13 |
| 0.47 | 1100 | 6.2 | Cc1cccc(CCN(C)C(=O)Cc2ccc(OCCCCOc3ccc(CC(=O)O)cc3)cc2)c1 | 44 | 14 |  |  |  |  |
| 0.354 | 1900 | 6.11 | COc1cc(CC(=O)O)ccc1OCCCCOc1ccc(CC(=O)N(C)CCc2ccc(Br)cc2)cc1 | 38 | 27 | Active | Active |  |  |
| 0.253 | 2400 | 5.81 | CN(CCc1ccccc1)C(=O)Cc1ccc(OCCCOc2ccc(CC(=O)O)cc2Cl)cc1 | 20 | 12 |  |  |  |  |
